In one assay the target is Tyk2 kinase domain (DH1) (Homo sapiens (Human), UniProt P29597). Nature of the assay: Tyk2 Radioactive Kinase Assay. The settings on record: for inhibition at 10 µM: read-out: Tyk2 JH1% Inhibition @ 10 μM. Format: biochemical. In short, it runs like this:
(§1)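 Compounds were tested at a single concentration of 10 μM in a radiometric kinase format against each isolated kinase domain. Activity is reported as percent inhibition at that concentration.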

Assay [1] has as its target human TYK2 (JH2domain-pseudokinase) (Homo sapiens (Human), UniProt P29597). Put plainly: TYK2 JH2 Domain Binding Assay (KINOMEscan). A digest of the protocol:
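Pseudokinase domain binding was measured by qPCR of tagged, bead-retained kinase after 1 h room-temperature competition, with 0.9% DMSO and compound up to 30,000 nM in 3-fold steps. Hill-equation Kd, duplicate.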

In a further assay the target is JAK2 kinase domain (JH1) (Homo sapiens (Human), UniProt O60674). Nature of the assay: JAK2 Radioactive Kinase Assay. Type of assay: biochemical. The note with it: for inhibition at 10 µM: read-out: JAK2 JH1% Inhibition @ 10 μM. In short, it runs like this:
as §1

The source of these data is patent US10508120B2, “TYK2 inhibitors and uses thereof” (Nimbus Lakshmi, Inc., priority 2017, dated 2019).

pKd: −log10 of the molar value. Where two headings read alike, the source gives them in different places. Some results are limits rather than exact numbers.

The inhibition is how much of the control response was suppressed. In general, pKd refers to the negative decadic logarithm of the Kd, by convention in mol/L. Read a low pKd as a large Kd.

Sequence of human TYK2 (JH2domain-pseudokinase) (P29597 556-888): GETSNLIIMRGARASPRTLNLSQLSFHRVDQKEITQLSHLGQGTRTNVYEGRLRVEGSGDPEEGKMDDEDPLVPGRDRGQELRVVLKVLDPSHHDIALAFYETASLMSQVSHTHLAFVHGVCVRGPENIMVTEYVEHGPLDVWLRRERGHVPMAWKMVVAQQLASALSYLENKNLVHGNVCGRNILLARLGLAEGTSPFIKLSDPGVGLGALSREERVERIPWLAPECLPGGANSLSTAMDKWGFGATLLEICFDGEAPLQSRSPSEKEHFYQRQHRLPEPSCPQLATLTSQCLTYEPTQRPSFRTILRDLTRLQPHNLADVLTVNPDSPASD
Sequence of JAK2 kinase domain (JH1) (O60674 849-1124): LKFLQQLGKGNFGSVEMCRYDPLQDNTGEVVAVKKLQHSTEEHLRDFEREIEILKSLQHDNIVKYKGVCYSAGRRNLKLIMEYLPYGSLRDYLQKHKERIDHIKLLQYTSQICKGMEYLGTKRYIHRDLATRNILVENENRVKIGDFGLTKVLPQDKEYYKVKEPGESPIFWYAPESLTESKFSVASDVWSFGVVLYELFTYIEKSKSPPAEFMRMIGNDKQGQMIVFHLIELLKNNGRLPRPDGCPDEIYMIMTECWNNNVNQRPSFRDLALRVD
Sequence of Tyk2 kinase domain (DH1) (P29597 897-1176): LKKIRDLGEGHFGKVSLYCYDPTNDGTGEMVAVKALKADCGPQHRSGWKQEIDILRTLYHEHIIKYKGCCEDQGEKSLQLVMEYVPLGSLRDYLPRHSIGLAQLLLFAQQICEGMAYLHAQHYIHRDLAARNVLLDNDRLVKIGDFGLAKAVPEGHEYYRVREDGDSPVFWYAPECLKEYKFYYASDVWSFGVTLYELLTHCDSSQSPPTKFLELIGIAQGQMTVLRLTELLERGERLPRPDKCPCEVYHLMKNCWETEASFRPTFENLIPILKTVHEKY

With `CNc1cc(-c2cn(C(C)C)c3ncc(C)cc23)nc2c(C(=O)NC3CC3)cnn12` [I-252], the inhibition at 10 µM on Tyk2 kinase domain (DH1) (compound at 10 μM, ATP 10 μM) was < 50%; at JAK2 kinase domain (JH1) (compound at 10 μM, ATP 10 μM), < 50%. The molecule also gave a negative logarithm of the Kd (pKd) in assay [1] of 8.00 to 9.00.
`CNc1cc(Nc2cccc(N3CCCC3)n2)nc2c(C(=O)NC3CC3)cnn12` [I-382]: the inhibition at 10 µM was < 50% at Tyk2 kinase domain (DH1) (compound at 10 μM, ATP 10 μM) and < 50% at JAK2 kinase domain (JH1) (compound at 10 μM, ATP 10 μM). The molecule further showed a pKd in assay [1] of 9.00 to 9.70.
For the molecule `Cc1c(Nc2cccnc2OC(C)C)nc2c(C(=O)NC3CCC3)cnn2c1N` [I-208, 7-amino-N-cyclobutyl-5-((2-isopropoxypyridin-3-yl)amino)-6-methyl pyrazolo[1,5-a]pyrimidine-3-carboxamide], the inhibition at 10 µM is < 50% at Tyk2 kinase domain (DH1) (compound at 10 μM, ATP 10 μM) and < 50% at JAK2 kinase domain (JH1) (compound at 10 μM, ATP 10 μM). Also, the pKd in assay [1] is 8.00 to 9.00.
Turning to `CNc1cc(Nc2cccc(N3CC(O)C3)n2)nc2c(C(=O)N[C@@H]3C[C@@H]3F)cnn12` [I-757], the inhibition at 10 µM is < 50% on Tyk2 kinase domain (DH1) (compound at 10 μM, ATP 10 μM) and < 50% on JAK2 kinase domain (JH1) (compound at 10 μM, ATP 10 μM). Further, in assay [1], the negative logarithm of the Kd (pKd) is > 9.70.
Consider `CNc1cc(Nc2cccn(-c3ccc(F)cc3)c2=O)nc2c(C(=O)NCC(C)(C)CO)cnn12` [I-245], for which the inhibition at 10 µM at Tyk2 kinase domain (DH1) (compound at 10 μM, ATP 10 μM) is < 50%; at JAK2 kinase domain (JH1) (compound at 10 μM, ATP 10 μM), < 50%. In addition, the pKd in assay [1] is > 9.70.
Consider `CNc1cc(Nc2cc(Cl)cnc2OC2CCC2)nc2c(C(N)=O)cnn12` [I-80], for which the inhibition at 10 µM at Tyk2 kinase domain (DH1) (compound at 10 μM, ATP 10 μM) is < 50%; on JAK2 kinase domain (JH1) (compound at 10 μM, ATP 10 μM) it was < 50%. This molecule had a pKd in assay [1] of 9.00 to 9.70.
Take `CNc1cc(Nc2cc(C)cnc2OCCOC)nc2c(C(=O)N[C@H]3C[C@H]3F)cnn12` [I-280]: the inhibition at 10 µM on Tyk2 kinase domain (DH1) (compound at 10 μM, ATP 10 μM) was < 50%; on JAK2 kinase domain (JH1) (compound at 10 μM, ATP 10 μM) it was < 50%. The pKd in assay [1] was > 9.70.
Consider `CNc1cc(Nc2cccn([C@@H]3CCCOC3)c2=O)nc2c(C(=O)N[C@H]3CCC[C@H](O)C3)cnn12` [I-734], for which the “Tyk2 JH1% Inhibition @ 10 μM” value at Tyk2 kinase domain (DH1) (compound at 10 μM, ATP 10 μM) was “A (percent inhibition at 10 μM lower than 50)”. The molecule further had a pKd in assay [1] of 9.00 to 9.70. Also, on JAK2 kinase domain (JH1) (compound at 10 μM, ATP 10 μM), the “JAK2 JH1% Inhibition @ 10 μM” value is “A (percent inhibition at 10 μM lower than 50)”.
Consider `CNc1cc(Nc2cccn([C@H]3CCC[C@@H]3OC)c2=O)nc2c(C(=O)NC3CC3)cnn12` [I-437], for which, at Tyk2 kinase domain (DH1) (compound at 10 μM, ATP 10 μM), the “Tyk2 JH1% Inhibition @ 10 μM” value is listed as “A (percent inhibition at 10 μM lower than 50)”. The molecule further had a pKd in assay [1] of 9.00 to 9.70. Further, the “JAK2 JH1% Inhibition @ 10 μM” value on JAK2 kinase domain (JH1) (compound at 10 μM, ATP 10 μM) is given as “A (percent inhibition at 10 μM lower than 50)”.
For `CNc1cc(Nc2cccn(-c3cnn(C)c3)c2=O)nc2c(C(=O)NC[C@H](C)CO)cnn12` [I-668], the inhibition at 10 µM at Tyk2 kinase domain (DH1) (compound at 10 μM, ATP 10 μM) was < 50%; on JAK2 kinase domain (JH1) (compound at 10 μM, ATP 10 μM), < 50%. Besides, in assay [1], the pKd was > 9.70.
Take `CNc1cc(Nc2cc(Cl)cn(C3CCCOC3)c2=O)nc2c(C(=O)N[C@H]3[C@@H]4COC[C@@H]43)cnn12` (stereo partly drawn) [I-741, N-((1R,5S,6r)-3-oxabicyclo[3.1.0]hexan-6-yl)-5-((5-chloro-2-oxo-1-(tetrahydro-2H-pyran-3-yl)-1,2-dihydropyridin-3-yl)amino)-7-(methylamino)pyrazolo[1,5-a]pyrimidine-3-carboxamide]: the inhibition at 10 µM on Tyk2 kinase domain (DH1) (compound at 10 μM, ATP 10 μM) was < 50%; on JAK2 kinase domain (JH1) (compound at 10 μM, ATP 10 μM) it was < 50%. For the same molecule, in assay [1], the pKd was > 9.70.
For the molecule `CNc1cc(Nc2cccn([C@H]3CCOC3)c2=O)nc2c(C(=O)NC3CC3)cnn12` [I-203], the inhibition at 10 µM on Tyk2 kinase domain (DH1) (compound at 10 μM, ATP 10 μM) is < 50%; on JAK2 kinase domain (JH1) (compound at 10 μM, ATP 10 μM), < 50%. In addition, the pKd in assay [1] was > 9.70.
For `CNc1cc(Nc2cccn([C@@H]3CCC[C@@H]3O)c2=O)nc2c(C(=O)NC3CC3)cnn12` [I-964], the inhibition at 10 µM was < 50% on Tyk2 kinase domain (DH1) (10 μM compound, 10 μM ATP) and < 50% at JAK2 kinase domain (JH1) (10 μM compound, 10 μM ATP). Besides, the pKd in assay [1] is 8.00 to 9.00.
With `CNc1cc(Nc2cccc([C@H]3CCCOC3)n2)nc2c(C(=O)N[C@H]3COC[C@H]3O)cnn12` [I-774], the “Tyk2 JH1% Inhibition @ 10 μM” value at Tyk2 kinase domain (DH1) (compound at 10 μM, ATP 10 μM) is on record as “A (percent inhibition at 10 μM lower than 50)”. The same molecule gave a pKd in assay [1] of 8.00 to 9.00. Also, at JAK2 kinase domain (JH1) (compound at 10 μM, ATP 10 μM), the “JAK2 JH1% Inhibition @ 10 μM” value is reported as “A (percent inhibition at 10 μM lower than 50)”.
Consider `CNc1cc(Nc2cccn(-c3cnn(C)c3)c2=O)nc2c(C(=O)NC[C@@H](C)CO)cnn12` [I-669], for which the inhibition at 10 µM on Tyk2 kinase domain (DH1) (compound at 10 μM, ATP 10 μM) is < 50%; on JAK2 kinase domain (JH1) (compound at 10 μM, ATP 10 μM) it was < 50%. In assay [1], the pKd was > 9.70.
Consider `CNc1cc(Nc2cccn([C@H]3CCCOC3)c2=O)nc2c(C(=O)N[C@H]3COC[C@H]3O)cnn12` [I-753], for which the inhibition at 10 µM is < 50% at Tyk2 kinase domain (DH1) (compound at 10 μM, ATP 10 μM) and < 50% on JAK2 kinase domain (JH1) (compound at 10 μM, ATP 10 μM). In assay [1], this molecule had a pKd of 9.00 to 9.70.
On to `CNc1cc(Nc2cccn(C3CCCCC3)c2=O)nc2c(C(=O)NC[C@@H](C)CO)cnn12` [I-1119], for which the inhibition at 10 µM on Tyk2 kinase domain (DH1) (10 μM compound, 10 μM ATP) is < 50%; at JAK2 kinase domain (JH1) (10 μM compound, 10 μM ATP), < 50%. Besides, in assay [1], the pKd is > 9.70.
Regarding `NC(=O)c1cnn2c(N)cc(Nc3cccn(C4CCN(CC(F)F)CC4)c3=O)nc12` [I-100], the inhibition at 10 µM was < 50% at Tyk2 kinase domain (DH1) (compound at 10 μM, ATP 10 μM) and < 50% on JAK2 kinase domain (JH1) (compound at 10 μM, ATP 10 μM). The molecule also showed a pKd in assay [1] of 8.00 to 9.00.
In the case of `CNc1cc(-c2nn(CCN3CCOCC3)c3ncccc23)nc2c(C(=O)NC3CC3)cnn12` [I-455], the inhibition at 10 µM was < 50% on Tyk2 kinase domain (DH1) (compound at 10 μM, ATP 10 μM) and < 50% on JAK2 kinase domain (JH1) (compound at 10 μM, ATP 10 μM). Moreover, in assay [1], the negative-log Kd (pKd) is 8.00 to 9.00.
